Assay results from patent US11292770B2, “Pyridazinone herbicides” (FMC Corporation, priority 2017, dated 2022).

Columns and labels:
Assay type in all cases: in vivo
[1] = tested on: ryegrass, Italian (Italian ryegrass, Lolium multiflorum); experiment: Test A postemergence, ryegrass, Italian; conditions: 0 to 100 scale
From the text: (§1) Seeds of plant species selected from barnyardgrass (Echinochloa crus-galli), kochia (Kochia scoparia), ragweed (common ragweed, Ambrosia elation), ryegrass, Italian (Italian ryegrass, Lolium multiflorum), foxtail, green (green foxtail, Setaria viridis), and pigweed (Amaranthus retroflexus) were planted into a blend of loam soil and sand and treated preemergence with a directed soil spray using test chemicals formulated in a non-phytotoxic solvent mixture which included a surfactant. At the same time, plants selected from these weed species and also wheat (Triticum aestivum), corn (Zea mays), blackgrass (Alopecurus myosuroides), and galium (catchweed bedstraw, Galium aparine) were planted in pots containing the same blend of loam soil and sand and treated with postemergence applications of test chemicals formulated in the same manner Plants ranged in height from 2 to 10 cm and were in the one- to two-leaf stage for the postemergence treatment. Treated plants and untreated controls were maintained in a greenhouse for approximately 10 d, after which time all treated plants were compared to untreated controls and visually evaluated for injury. Plant response ratings, summarized in Table A, are based on a 0 to 100 scale where 0 is no effect and 100 is complete control. A dash (—) response means no test result.

[2] = tested on: Foxtail, Giant; experiment: Test A postemergence, foxtail, giant; conditions: 0 to 100 scale
[3] = tested on: ragweed (common ragweed, Ambrosia elation); experiment: Test A preemergence, ragweed; conditions: 0 to 100 scale
From the text: as §1

[4] = tested on: sedge, umbrella (small-flower umbrella sedge, Cyperus difformis); experiment: Test B flooded paddy test, sedge, umbrella; conditions: Flood, 250 g ai/ha; scale of 0 to 100
Protocol: (§2) Plant species in the flooded paddy test selected from rice (Oryza sativa), sedge, umbrella (small-flower umbrella sedge, Cyperus difformis), ducksalad (Heteranthera limosa), and barnyardgrass (Echinochloa crus-galli) were grown to the 2-leaf stage for testing. At the time of treatment, test pots were flooded to 3 cm above the soil surface, treated by application of test compounds directly to the paddy water, and then maintained at that water depth for the duration of the test. Treated plants and controls were maintained in a greenhouse for 13 to 15 d, after which time all species were compared to controls and visually evaluated. Plant response ratings, summarized in Table B, are based on a scale of 0 to 100 where 0 is no effect and 100 is complete control. A dash (—) response means no test result.

[5] = tested on: Foxtail, Giant; experiment: Test A preemergence, foxtail, giant; conditions: 0 to 100 scale
[6] = tested on: corn (Zea mays); experiment: Test A postemergence, corn; conditions: 0 to 100 scale
From the text: as §1

[7] = tested on: kochia (Kochia scoparia); experiment: Test A postemergence, kochia; conditions: 0 to 100 scale
From the text: as §1

[8] = tested on: barnyardgrass (Echinochloa crus-galli); experiment: Test A preemergence, barnyardgrass; conditions: 0 to 100 scale
From the text: as §1

[9] = tested on: wheat (Triticum aestivum); experiment: Test A postemergence, wheat; conditions: 0 to 100 scale
From the text: as §1

[10] = tested on: ragweed (common ragweed, Ambrosia elation); experiment: Test A postemergence, ragweed; conditions: 0 to 100 scale
From the text: as §1

[11] = tested on: rice (Oryza sativa); experiment: Test B flooded paddy test, rice; conditions: Flood, 250 g ai/ha; scale of 0 to 100
Protocol: as §2

[12] = tested on: kochia (Kochia scoparia); experiment: Test A preemergence, kochia; conditions: 0 to 100 scale
From the text: as §1

[13] = tested on: blackgrass (Alopecurus myosuroides); experiment: Test A postemergence, blackgrass; conditions: 0 to 100 scale
From the text: as §1

[14] = tested on: barnyardgrass (Echinochloa crus-galli); experiment: Test A postemergence, barnyardgrass; conditions: 0 to 100 scale
From the text: as §1

[15] = tested on: barnyardgrass (Echinochloa crus-galli); experiment: Test B flooded paddy test, barnyardgrass; conditions: Flood, 250 g ai/ha; scale of 0 to 100, 0 no effect, 100 complete control
Protocol: as §2

[16] = tested on: galium (catchweed bedstraw, Galium aparine); experiment: Test A postemergence, galium; conditions: 0 to 100 scale
From the text: as §1

[17] = tested on: ducksalad (Heteranthera limosa); experiment: Test B flooded paddy test, ducksalad; conditions: Flood, 250 g ai/ha; scale of 0 to 100
Protocol: as §2

[18] = tested on: pigweed (Amaranthus retroflexus); experiment: Test A preemergence, pigweed; conditions: 0 to 100 scale
From the text: as §1

[19] = tested on: ryegrass, Italian (Italian ryegrass, Lolium multiflorum); experiment: Test A preemergence, ryegrass, Italian; conditions: 0 to 100 scale
From the text: as §1

[20] = tested on: pigweed (Amaranthus retroflexus); experiment: Test A postemergence, pigweed; conditions: 0 to 100 scale
From the text: as §1

[21] = 125 g ai/ha, 0 no effect, 100 complete control

| Structure (SMILES) | Plant response rating, Ryegrass, Italian ([1]; 31 g ai/ha) | Plant response rating, Ryegrass, Italian ([1]; 125 g ai/ha) | Plant response rating, Foxtail, Giant ([2]; 31 g ai/ha) | Plant response rating, Foxtail, Giant ([2]; 125 g ai/ha) | Plant response rating, Ragweed ([3]; 31 g ai/ha) | Plant response rating, Ragweed ([3]; 125 g ai/ha) | Plant response rating, Sedge, Umbrella [4] | Plant response rating, Foxtail, Giant ([5]; 31 g ai/ha) | Plant response rating, Foxtail, Giant ([5]; 125 g ai/ha) | Plant response rating, Corn ([6]; 31 g ai/ha) | Plant response rating, Corn ([6]; 125 g ai/ha) | Plant response rating, Kochia ([7]; 31 g ai/ha) | Plant response rating, Kochia ([7]; 125 g ai/ha) | Plant response rating, Barnyardgrass ([8]; 31 g ai/ha) | Plant response rating, Barnyardgrass ([8]; 125 g ai/ha) | Plant response rating, Wheat ([9]; 31 g ai/ha) | Plant response rating, Wheat ([9]; 125 g ai/ha) | Plant response rating, Ragweed ([10]; 31 g ai/ha) | Plant response rating, Ragweed ([10]; 125 g ai/ha) | Plant response rating, Rice [11] | other results |
| --- | --- | --- | --- | --- | --- | --- | --- | --- | --- | --- | --- | --- | --- | --- | --- | --- | --- | --- | --- | --- | --- |
| Cc1nn(C)c(=O)c(-c2c3ccccc3cc3ccccc23)c1O [Compound 8] | 90 | 100 | 10 | 60 | 40 | 90 | 90 | 0 | 10 | 10 | 10 | 0 | 10 | 0 | 10 | 0 | 0 | 90 | 90 | 15 | Plant response rating, Kochia ([12]; 31 g ai/ha): 0; Plant response rating, Kochia ([12]; 125 g ai/ha): 0; Plant response rating, Blackgrass ([13]; 31 g ai/ha): 0; Plant response rating, Blackgrass ([13]; 125 g ai/ha): 30; Plant response rating, Barnyardgrass ([14]; 31 g ai/ha): 10; Plant response rating, Barnyardgrass [14, 21]: 50; Plant response rating, Barnyardgrass [15]: 15; Plant response rating, Galium ([16]; 31 g ai/ha): 80; Plant response rating, Galium ([16]; 125 g ai/ha): 90; Plant response rating, Ducksalad [17]: 90; Plant response rating, Pigweed ([18]; 31 g ai/ha): 100; Plant response rating, Pigweed ([18]; 125 g ai/ha): 100; Plant response rating, Ryegrass, Italian ([19]; 31 g ai/ha): 10; Plant response rating, Ryegrass, Italian ([19]; 125 g ai/ha): 50; Plant response rating, Pigweed ([20]; 31 g ai/ha): 90; Plant response rating, Pigweed ([20]; 125 g ai/ha): 100 |
| CC(=O)Oc1c(Cl)nn(C)c(=O)c1-c1c2ccccc2cc2ccccc12 [Compound 6] | 20 | 70 | 0 | 20 | 40 | 100 | 95 | 0 | 10 | 0 | 0 | 0 | 20 | 0 | 0 | 10 | 10 | 90 | 90 | 0 | Plant response rating, Kochia ([12]; 31 g ai/ha): 0; Plant response rating, Kochia ([12]; 125 g ai/ha): 0; Plant response rating, Blackgrass ([13]; 31 g ai/ha): 0; Plant response rating, Blackgrass ([13]; 125 g ai/ha): 0; Plant response rating, Barnyardgrass ([14]; 31 g ai/ha): 0; Plant response rating, Barnyardgrass [14, 21]: 10; Plant response rating, Barnyardgrass [15]: 0; Plant response rating, Galium ([16]; 31 g ai/ha): 80; Plant response rating, Galium ([16]; 125 g ai/ha): 100; Plant response rating, Ducksalad [17]: 85; Plant response rating, Pigweed ([18]; 31 g ai/ha): 80; Plant response rating, Pigweed ([18]; 125 g ai/ha): 100; Plant response rating, Ryegrass, Italian ([19]; 31 g ai/ha): 30; Plant response rating, Ryegrass, Italian ([19]; 125 g ai/ha): 30; Plant response rating, Pigweed ([20]; 31 g ai/ha): 100; Plant response rating, Pigweed ([20]; 125 g ai/ha): 100 |
| C1COCCN1.Cn1nc(Cl)c(O)c(-c2c3ccccc3cc3ccccc23)c1=O [Compound 7] | 10 | 60 | 0 | 10 | 0 | 40 | 100 | 0 | 0 | 10 | 10 | 0 | 10 | 0 | 0 | 0 | 0 | 90 | 100 | 0 | Plant response rating, Kochia ([12]; 31 g ai/ha): 0; Plant response rating, Kochia ([12]; 125 g ai/ha): 0; Plant response rating, Blackgrass ([13]; 31 g ai/ha): 0; Plant response rating, Blackgrass ([13]; 125 g ai/ha): 10; Plant response rating, Barnyardgrass ([14]; 31 g ai/ha): 0; Plant response rating, Barnyardgrass [14, 21]: 0; Plant response rating, Barnyardgrass [15]: 0; Plant response rating, Galium ([16]; 31 g ai/ha): 70; Plant response rating, Galium ([16]; 125 g ai/ha): 100; Plant response rating, Ducksalad [17]: 100; Plant response rating, Pigweed ([18]; 31 g ai/ha): 60; Plant response rating, Pigweed ([18]; 125 g ai/ha): 100; Plant response rating, Ryegrass, Italian ([19]; 31 g ai/ha): 0; Plant response rating, Ryegrass, Italian ([19]; 125 g ai/ha): 0; Plant response rating, Pigweed ([20]; 31 g ai/ha): 100; Plant response rating, Pigweed ([20]; 125 g ai/ha): 100 |
